Results as given in patent US12655173B2, “Hybrid amide derivatives of amphotericin B” (priority 2020, dated 2026).
Converted amounts (≈) assume the structure as drawn.

Tests used:
A. thermomutatus = assay: MIC against moulds; type: cell-based; settings: for MIC A. thermomutatus: 6 isolates, AmB (AmBisome)
Solubility in D5W = settings: solubility in D5W
CEA10 (clinical isolate) = assay: MIC against azole and echinocandin resistant fungal strains (CLSI); type: cell-based, A. funigatus; settings: read-out: MIC CEA10
Description: This experiment was performed following the standard CLSI protocol.

| Structure (SMILES) | MIC (A. thermomutatus; Aspergillus thermomutatus, read-out: MIC A. thermomutatus) [µM] | MIC A. thermomutatus (A. thermomutatus) [µM] | Fold of Increase w.r.t. AmB (Solubility in D5W) | MIC (CEA10 (clinical isolate)) [µM] |
| --- | --- | --- | --- | --- |
| C[C@@H]1[C@H](O)[C@@H](C)/C=C/C=C/C=C/C=C/C=C/C=C/C=C/[C@H](OC2O[C@H](C)[C@@H](O)[C@H](N)[C@@H]2O)C[C@@H]2O[C@](O)(C[C@@H](O)C[C@@H](O)[C@H](O)CC[C@@H](O)C[C@@H](O)CC(=O)O[C@H]1C)C[C@H](O)[C@H]2C(=O)O (stereo partly drawn) [AmB, Amphotericin B] | 0.6 (≈ 0.554 µg/mL) | – | – | – |
| CC1C=CC=CC=CC=CC=CC=CC=CC(OC2OC(C)C(O)C(N)C2O)CC2OC(O)(CC(O)CC(O)C(O)CCC(O)CC(O)CC(=O)OC(C)C(C)C1O)CC(O)C2C(=O)NC(CO)CO (stereo not drawn) [Compound 1] | – | 1.45 (≈ 1.45 µg/mL) | >314 | – |
| CC1C=CC=CC=CC=CC=CC=CC=CC(OC2OC(C)C(O)C(N)C2O)CC2OC(O)(CC(O)CC(O)C(O)CCC(O)CC(O)CC(=O)OC(C)C(C)C1O)CC(O)C2C(=O)NC(CO)(CO)CO (stereo not drawn) [Compound 2] | – | 2.1 (≈ 2.16 µg/mL) | 15.9 | – |
| C[C@@H](c1ncncc1F)[C@](O)(Cn1cncn1)c1ccc(F)cc1F [Voriconazole] | – | – | – | 1.43 (≈ 0.5 µg/mL) |
